Results on two compounds are retold here after article PMC3174134, “Lucanthone and Its Derivative Hycanthone Inhibit Apurinic Endonuclease-1 (APE1) by Direct Protein Binding” (PLoS ONE, 2011).

Like-named read-outs stand apart in the source and are kept apart here.

In test [1] the target is T1, APE1 (Homo sapiens, UniProt P27695). In words: APE1 expression and cleavage in U251 1-5 overexpressor cells pretreated with cycloheximide, Western blot. Format: cell-based. The conditions noted are these: for Cleavage of APE1 (25 kDa fragment): 10 µg/ml cycloheximide 4 h, then 25-100 µM drug 2 h. As to the method:
(§1) Total purified protein concentration was determined by the ratio of A280/A260. 250 ng of APE1 treated with lucanthone or hycanthone (0.05–100 µM) for 2 h at 37°C in final volume of 30 µl were mixed with an equal volume of gel loading buffer (0.001% bromophenol blue, 4% SDS, 10% 2-ME, 20% glycerol, and 125 mM Tris pH 6.8) and denatured at 95°C for 5 min. Total protein concentration in cell extracts was determined using the Bradford assay (BioRad, Hercules, CA) and 25 µg of total protein from soluble or insoluble cell fractions were mixed with an equal volume of gel loading buffer (0.001% bromophenol blue, 4% SDS, 10% 2-ME, 20% glycerol, and 125 mM Tris pH 6.8) and denatured at 95°C for 5 min. This mixture was separated by SDS-PAGE (4% stacking, 7.5% resolving gel) for 2–3 h at 40 mA on a BioRad MiniPROTEAN II Electrophoresis Cell. To detect proteins, proteins were transferred onto a trans-Blot nitrocellulose membrane (0.45 µm; BioRad) overnight at 4°C at 15 mA in standard Tris-Glycine buffer containing 20% ethanol. Membranes were probed using polyclonal anti-APE1 or polyclonal anti-©-tubulin at 1/1,000 dilution in TTBS (0.1% Tween 20 in TBS (pH 7.5)) with secondary, anti-rabbit HRP-conjugated antibody used at 1/30,000 dilution to detect APE1 and ©-tubulin protein control. Chemi-luminescence was developed using an ECL kit according to the manufacturer's instructions and detected by exposing the blot to HyperfilmECL for 30 s–3 min. (GE Healthcare Biosciences, Piscataway, NJ).
Western blotting was carried out by 7.5% SDS-PAGE of cell extracts (20 µg total protein per lane) either from APE1 overexpresser clone 5 pretreated with 2.5–200 µM concentration of lucanthone/CRT0044876 or recombinant APE1 for 2 h at 37°C in presence of protease inhibitor cocktail (2 tablets (Roche, # 11836153001) containing mixture of several protease inhibitors with broad inhibitory specificity for serine, cysteine and metalloproteases in all systems, dissolved in 20 ml of APE1 buffer). […]

Test [2] deals with T1, APE1. In words: Direct binding by surface plasmon resonance (BIACORE 2000), APE1 immobilized on CM5 chip. Details: the full length APE1 protein was successfully expressed and purified; made in house; host or cells: E. coli BL21/DE3. The conditions noted are these: for kd: full length APE1; for kon: pH 7.4, read-out: ka. As for the experimental part: APE1 (and its hydrophobic mutants) and lucanthone/hycanthone reaction stoichiometry was studied using surface plasmon resonance on a BIACORE 2000 apparatus (Biacore, GE Healthcare, Sweden) at the protein core facility in SUNYSB, to determine the affinity of the two drugs for APE1 (or NΔ40 APE1). APE1 and its mutants (10 µg) (RUmax values were 9000 RU units after immobilization) were immobilized on a CM5 chip by amine coupling (as per the manufacturer's instructions) and binding experiments were performed at 20°C in 10 mM HBS-EP buffer, pH 7.4. Lucanthone (or hycanthone) (20–700 µM) was injected as analyte over the sensor chip in HBS-EP buffer at 10 µl/min. The regeneration was achieved by 10 mM glycine-HCl, pH 3.0 between each analyte (drug) concentration.
Background: Surface plasmon resonance follows binding to a sensor surface in real time, without labels.

Test [3] concerns the target T2, recombinant full length APE1 (Homo sapiens, UniProt P27695).
T2 construct: the full length APE1 protein was successfully expressed and purified; made in house; host or cells: E. coli BL21/DE3
In words: Cleavage of recombinant full length APE1, Western blot. As to the method:
as §1, with “Membranes were probed using polyclonal anti-APE1 or polyclonal anti-©-tubulin at 1/1,000 dilution in TTBS (0.1% Tween 20 in TBS (pH 7.5)) with secondary, anti-rabbit HRP-conjugated antibody used at 1/30,000 dilution to detect APE1 and ©-tubulin protein control.” left out, “(GE Healthcare Biosciences, Piscataway, NJ).” left out

Test [4] addresses T3, human Nth (Homo sapiens, UniProt P78549).
T3 sequence (P78549 23-304): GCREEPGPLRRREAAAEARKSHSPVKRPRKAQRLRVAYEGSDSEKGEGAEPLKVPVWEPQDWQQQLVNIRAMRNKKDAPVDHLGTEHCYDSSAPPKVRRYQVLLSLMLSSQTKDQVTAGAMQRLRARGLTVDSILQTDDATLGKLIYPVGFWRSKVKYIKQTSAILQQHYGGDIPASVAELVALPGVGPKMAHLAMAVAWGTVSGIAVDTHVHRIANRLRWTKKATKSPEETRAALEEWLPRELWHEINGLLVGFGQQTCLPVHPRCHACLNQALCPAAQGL
In words: Cleavage of human Nth by lucanthone (specificity control). As to conditions: data not shown.

The target in test [5] is T3, human Nth. In words: Circular dichroism of human Nth with lucanthone. As to conditions: 140 µM lucanthone, 37°C, 60 min. (In general: Circular dichroism is the unequal absorption of left and right circularly polarised light.)
Test [6] has as its target E.coli endonuclease IV (Nfo) (Escherichia coli, UniProt P0A6C1). In words: Circular dichroism of E.coli Nfo with lucanthone. As to conditions: 140 µM lucanthone, 37°C, 60 min.
The target in test [7] is T1, APE1. In words: APE1 cleavage in whole cell extracts of U251 1-5 APE1 overexpressor clone, Western blot with protease inhibitor cocktail. Details: the full length APE1 protein was successfully expressed and purified; made in house; host or cells: E. coli BL21/DE3. The conditions noted are these: U251 1-5 whole cell extracts, 2 h, 37°C. As to the method: as §1, with “Membranes were probed using polyclonal anti-APE1 or polyclonal anti-©-tubulin at 1/1,000 dilution in TTBS (0.1% Tween 20 in TBS (pH 7.5)) with secondary, anti-rabbit HRP-conjugated antibody used at 1/30,000 dilution to detect APE1 and ©-tubulin protein control.” left out, “(GE Healthcare Biosciences, Piscataway, NJ).” left out
On the technique in general: A western blot detects proteins with antibodies after separation by electrophoresis.

T1 sequence (P27695 whole entry, the tested form may be a part): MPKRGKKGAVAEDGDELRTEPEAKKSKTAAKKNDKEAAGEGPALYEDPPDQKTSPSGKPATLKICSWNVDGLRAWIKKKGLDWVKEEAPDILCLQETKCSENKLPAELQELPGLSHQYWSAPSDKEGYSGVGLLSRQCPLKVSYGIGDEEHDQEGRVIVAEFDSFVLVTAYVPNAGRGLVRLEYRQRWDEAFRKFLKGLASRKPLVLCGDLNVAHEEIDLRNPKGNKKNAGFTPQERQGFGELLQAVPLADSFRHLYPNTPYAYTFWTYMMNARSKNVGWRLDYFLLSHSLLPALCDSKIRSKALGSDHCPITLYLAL
T2 sequence (P27695 whole entry): as the sequence (P27695 whole entry, the tested form may be a part) above

Turning to `CCN(CC)CCNc1ccc(CO)c2sc3ccccc3c(=O)c12` [hycanthone], on APE1 [1], the “Cleavage of APE1 (25 kDa fragment)” value is “induce cleavage of APE1”. For the same compound, the “APE1:drug stoichiometry” value at APE1 [2] is given as roughly 1. Further, the RUmax at APE1 [2] is 90 RU. The dissociation constant (Kd) (as a rule, the constant that tells how readily two partners part at equilibrium) at APE1 [2] (BIACORE, 20°C, HBS-EP pH 7.4, read-out: KD (affinity constant)) amounted to 10 nM. In addition, the RUligand on APE1 [2] (Conc 22 µM) was 24 RU; on APE1 [2] (Conc 44 µM) it was 45 RU; at APE1 [2] (Conc 88 µM), 78 RU; at APE1 [2] (Conc 176 µM), 79 RU; at APE1 [2] (Conc 352 µM), 90 RU; on APE1 [2] (Conc 704 µM) it was 118 RU. At APE1 [2], this compound returned a kd of 8.9e-07 s⁻¹. The “Ka, fold higher than lucanthone” value on APE1 [2] (hycanthone vs lucanthone) was “about 8 fold”. Also, on APE1 [2] (hycanthone vs lucanthone), the “kd of full length APE1, fold lower than for lucanthone” value was roughly 100 fold. The kon at APE1 [2] was 90 M⁻¹ s⁻¹.

Regarding `CCN(CC)CCNc1ccc(C)c2sc3ccccc3c(=O)c12` [lucanthone, 1-[2-diethylaminoethylamino]-4-methylthioxanthen-9-one], the “Cleavage of APE1 (25 kDa fragment)” value on APE1 [1] is recorded as “induce cleavage of APE1”. In addition, at APE1 [1] (10 µg/ml cycloheximide 4 h pretreatment), the “De novo APE1 synthesis” value is given as “not affected significantly”. In addition, in test [3] (10 mM TRIS, 100 µM ascorbic acid or N-acetyl cysteine (purified APE1), 1% DMSO (cell extracts)), the “Lucanthone-induced cleavage of APE1 in presence of radical quenchers” value was “significantly inhibited”. Besides, the “Cleavage of recombinant APE1” value in test [3] (10-50 µM, 37°C, 2 h) is recorded as “increase in the formation of the 25 kDa fragment”. For the same compound, the “Cleavage of human Nth” value at human Nth [4] was “did not observe any cleavage”. At human Nth [5], the “Conformational change of human Nth (CD)” value is given as “little conformational changes”. Besides, in test [6], the “Conformational change of E.coli Nfo (CD)” value is listed as “little conformational changes”. For the same compound, at APE1 [2], the “APE1:drug stoichiometry” value is “may have been lower”. At APE1 [2], this compound came in with a Kd of 89 nM. On APE1 [2], the RUmax was 91 RU. The RUligand at APE1 [2] (Conc 20 µM) was −82 RU; on APE1 [2] (Conc 40 µM) it was −26 RU; on APE1 [2] (Conc 80 µM) it was 2.5 RU; at APE1 [2] (Conc 160 µM), 77 RU; on APE1 [2] (Conc 320 µM), 94 RU; on APE1 [2] (Conc 640 µM) it was 62 RU. Besides, at APE1 [2], the kd was 7.76e-05 s⁻¹. Further, the kon at APE1 [2] stood at 878 M⁻¹ s⁻¹. For the same compound, the “Concentration causing cleavage of APE1” value at APE1 [7] is 50 µM.
